Patent US20140057997A1, “COSMETIC COMPOSITION COMPRISING 4-(3-ETHOXY-4-HYDROXYPHENYL)-2-BUTANONE AND A LIPOPHILIC SOLVENT” (L'OREAL, priority 2011, published 2014)

Test: Solubility stated in the introduction
Format: physicochemical

Measured: Solubility

CCOc1cc(CCC(C)=O)ccc1O [4-(3-ethoxy-4-hydroxyphenyl)-2-butanone, 4-(3-Ethoxy-4-hydroxyphenyl)-2-butanone]
very sparingly soluble: in 2-octyldodecanol | in glycerol | in water
